Where two headings read alike, the source gives them in different places.
Experiments:
[1] = biological target: T1, A. fumigatus UGM (Aspergillus fumigatus, UniProt Q4W1X2); assay: ADP-TAMRA fluorescence anisotropy binding and competition assay; conditions: for Kd: decrease in anisotropy of UGM (6.7 µM) - ADP-TAMRA (30 nM) complex, read-out: KD, competitive binding against ADP-TAMRA
T1 construct: 8x His-tag (TEV-cleavable) (cleaved yes); made in house; host or cells: E. coli BL21 Turbo (DE3)
Description: Our group previously developed a binding assay to identify inhibitors of flavoenzymes that use NADP(H) as substrate. Since UGM also used NADPH for reduction, we determined whether this compound bound to UGM. This was done by taking the ADP-TAMRA[22] chromophore to a final concentration of 30 nM in 25 mM HEPES buffer, pH 7.5, mixed with various concentrations of UGM (0–300 µM, based on Bradford). To determine if the chromophore was binding to the active site of UGM, the competitive binding of UDP (0–1 mM) and NADP^+ (0–10 mM) was calculated by measuring the decrease in anisotropy of the UGM (6.7 µM) - ADP-TAMRA (30 nM) complex. At each concentration of ligand, the solution was incubated for 10 min at room temperature. The sample was excited at 544 nm and the emission recorded at 584 nm using a wavelength cutoff of 570 nm.

[2] = biological target: T1, A. fumigatus UGM; assay: biochemical; assay type: binding; conditions: read-out: Normalized anisotropy (%)
Description: High-throughput screening of the Spectrum Collection library using the FP assay with the ADP-TAMRA[22] probe was performed at the Virginia Tech Center for Drug Discovery Screening Laboratory. 384 well plates (Greiner 784900) were used and the reaction volume was 15 µL using 25 mM HEPES buffer (pH 7.0). For the screening, 30 nM of ADP-TAMRA with 6.7 µM UGM (based on the Bradford assay) and 20 µM of library compound were used, with a final DMSO concentration of 2%. Fluorescence polarization measurements were performed with excitation at 544 nm and emission at 584 nm, using a wavelength cutoff of 570 nm. Anisotropy measurements were performed after 30 and 120 minutes of incubation at 25 °C. Anisotropy values were normalized to the values obtained in the negative control sample: UGM, ADP-TAMRA, and DMSO (high anisotropy values). The positive control consisted of ADP-TAMRA and DMSO (low anisotropy values). The Z prime (Z′) value was determined using equation (1) where, σN,P and μN,P represent the standard deviation and the mean value the of the negative and positive controls respectively.1 Z′=1−3(σN+σP)/|μN−μP|

[3] = biological target: T1, A. fumigatus UGM; assay: biochemical; assay type: biochemical; conditions: for Concentration effect: UPLC; for inhibition at 200 µM: read-out: Inhibition > 50 %; for Inhibition of product formation, concentration dependence: UPLC at 20 and 200 µM compound, 2% DMSO
Description: The reaction was quenched with the addition of 70 µL acetonitrile. […] Samples were run at a flow rate of 0.5 mL/min for 5 min. IC50 was also determined by following NADPH oxidation at 340 nm. […] Data was analyzed using KaleidaGraph software. […] Global fitting was performed with Graphpad Prims 6 software (La Jolla, CA).

[4] = biological target: T2, UGM (Aspergillus fumigatus, UniProt Q4W1X2); assay: ThermoFAD melting temperature assay; assay type: binding; conditions: for Effect on Tm of UGM: 20, 100 and 1000 µM compound, 2% DMSO, 1 mg/mL UGM, vs UGM alone
T2 construct: 8x His-tag (TEV-cleavable) (cleaved yes); made in house; host or cells: E. coli BL21 Turbo (DE3)
T2 sequence (Q4W1X2 whole entry): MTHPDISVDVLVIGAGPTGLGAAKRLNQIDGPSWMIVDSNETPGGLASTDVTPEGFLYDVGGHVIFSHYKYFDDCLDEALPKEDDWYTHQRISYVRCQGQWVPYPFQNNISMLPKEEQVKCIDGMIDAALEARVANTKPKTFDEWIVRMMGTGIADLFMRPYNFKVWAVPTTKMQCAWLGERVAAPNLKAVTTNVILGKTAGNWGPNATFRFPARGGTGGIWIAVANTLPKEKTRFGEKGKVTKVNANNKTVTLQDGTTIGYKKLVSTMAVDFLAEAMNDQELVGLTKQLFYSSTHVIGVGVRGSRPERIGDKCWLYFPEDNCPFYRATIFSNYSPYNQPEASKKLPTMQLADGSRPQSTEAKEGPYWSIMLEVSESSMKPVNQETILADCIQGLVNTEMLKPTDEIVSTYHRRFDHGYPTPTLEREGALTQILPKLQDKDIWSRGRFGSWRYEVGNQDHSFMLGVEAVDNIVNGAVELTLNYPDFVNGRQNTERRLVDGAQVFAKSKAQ
Description: The melting temperature[25] of UGM was determined by measuring the FAD fluorescence as a function of temperature (20–90 °C, 1 °C step) following the reported ThermoFAD procedure. The reaction mix consisted of 20 µL of 1 mg/mL UGM, 2% DMSO in 50 mM potassium phosphate buffer, pH 7.0. As a reference and positive control, the Tm was calculated in the presence DMSO and UDP (10 mM). Different concentrations of inhibitors were added in the range of 0–1 mM at a final DMSO concentration of 2% in the above-mentioned buffer. All experiments were done in triplicate.

[5] = Precipitation / solubility observed in inhibition assays; assay type: physicochemical
[6] = biological target: T1, A. fumigatus UGM; assay: biochemical; assay type: binding; conditions: ITC, 25 °C; for Kd: read-out: KD
Description: Binding of inhibitors to UGM was measured with an Auto-ITC 200 ITC instrument. UGM was dialyzed in 50 mM potassium phosphate buffer, pH 7.0, for 2 h at 4 °C. In all cases, ligands were dissolved in dialysis buffer and protein and ligand were filtered with a […] membrane prior to loading. […] Inhibitor concentration in the syringe was 2 mM (2% DMSO), except for chrysin where the concentration was 600 µM (4% DMSO). […] Thermodynamic parameters were determined from ITC results using Microcal Origin version 7.0 (OriginLab) with the “ITC custom” add-on installed.

[7] = 20 µM compound, 2% DMSO, 30 nM ADP-TAMRA, normalized to negative control
[8] = inhibition at 200 µM vs 20 µM compound
[9] = product formation by UPLC with 200 µM compound, 20 µM UDP-Galf, 10 mM sodium dithionite

T1 sequence (Q4W1X2 whole entry): as above

SMILES: Nc1ncnc2c1ncn2[C@@H]1O[C@H](COP(=O)(O)OP(=O)(O)O)[C@@H](O)[C@H]1O [ADP]
- Kd [1]: 124 ± 16 µM

SMILES: O=C(O)C1=CC(=C(c2ccc(O)c(C(=O)O)c2)c2ccc(O)c(C(=O)O)c2)C=CC1=O [Aurin tricarboxylic acid]
- remaining activity at 20 µM [2, 7]: 14%
- Concentration effect [3, 8]: -
- inhibition at 200 µM [3, 9]: < 50%

SMILES: N#CC(c1ccc(Cl)cc1)c1c(Cl)cc(-n2ncc(=O)[nH]c2=O)cc1Cl (centres unmarked) [Diclazuril, reference compound]
- remaining activity at 20 µM [2, 7]: 37%
- Effect on Tm of UGM [4]: reduced the Tm
- Inhibition of product formation, concentration dependence [3]: concentration dependent potency
- Concentration effect [3, 8]: +
- inhibition at 200 µM [3, 9]: > 50%

SMILES: COc1cc(C)c(C(=O)Oc2cc(C)c(C(=O)O)c(O)c2C)c(OC)c1C [Diffractaic acid]
- remaining activity at 20 µM [2, 7]: 37%
- Concentration effect [3, 8]: -
- inhibition at 200 µM [3, 9]: < 50%

SMILES: O=c1oc2c(O)c(O)cc3c(=O)oc4c(O)c(O)cc1c4c23 [Ellagic acid]
- remaining activity at 20 µM [2, 7]: 50%
- Solubility [5]: low solubility
- Concentration effect ([3]; ellagic acid assayed at 6 and 12 µM with 2% DMSO due to low solubility): -

SMILES: Cc1nc(-c2ccc(OCC(C)C)c(C#N)c2)sc1C(=O)O [Febuxostat, reference compound]
- remaining activity at 20 µM [2, 7]: 39%
- Effect on Tm of UGM [4]: reduced the Tm
- Inhibition of product formation, concentration dependence [3]: concentration dependent potency
- Concentration effect [3, 8]: +
- inhibition at 200 µM [3]: > 50%

SMILES: O=c1c(O)c(-c2ccc(O)cc2)oc2cc(O)cc(O)c12 [Kaempferol]
- remaining activity at 20 µM [2, 7]: 38%
- enzyme activity at which the IC50 curve plateaued ([3]; 3 min): around 70%
- Concentration effect [3, 8]: +
- inhibition at 200 µM [3, 9]: > 50%
- anisotropy at which the KD curve plateaued ([1]; 30 nM ADP-TAMRA): around 50%

SMILES: NC(=O)c1ccc[n+]([C@@H]2O[C@H](COP(=O)([O-])OP(=O)(O)OC[C@H]3O[C@@H](n4cnc5c(N)ncnc54)[C@H](OP(=O)(O)O)[C@@H]3O)[C@@H](O)[C@H]2O)c1 [NADP^+, reference compound]
- T•∆S [6]: -8.4 ± 0.7 kcal/mol
- ∆G [6]: -4.6 ± 0.3 kcal/mol
- ∆H [6]: -13.0 ± 0.3 kcal/mol
- Kd [6]: 413 ± 24 µM
- Kd [1]: 92 ± 13 µM

SMILES: O=C(NCCO[N+](=O)[O-])c1cccnc1 [Nicorandil, reference compound]
- remaining activity at 20 µM [2]: 27%
- Concentration effect [3, 8]: -
- inhibition at 200 µM [3]: < 50%

SMILES: CS(=O)(=O)Nc1ccc([N+](=O)[O-])cc1Oc1ccccc1 [Nimesulide, reference compound]
- remaining activity at 20 µM [2]: 28%
- Concentration effect [3, 8]: -
- inhibition at 200 µM [3]: < 50%

SMILES: O=C(O)c1cc(/N=N/c2ccc(O)c(C(=O)O)c2)ccc1O [Olsalazine sodium, reference compound]
- remaining activity at 20 µM [2]: 48%
- Concentration effect [3, 8]: -
- inhibition at 200 µM [3]: < 50%

SMILES: O=C1C[C@H](c2ccc(O)cc2)Oc2cc(O)cc(O)c21 [R enantioniomer of naringenin, (2 R)-naringenin]
- Inhibition of UGM by derivatives [3]: no inhibition

SMILES: Cc1ccc(C(=O)Nc2ccc(S(=O)(=O)O)c3cc(S(=O)(=O)O)cc(S(=O)(=O)O)c23)cc1NC(=O)c1cccc(NC(=O)Nc2cccc(C(=O)Nc3cc(C(=O)Nc4ccc(S(=O)(=O)O)c5cc(S(=O)(=O)O)cc(S(=O)(=O)O)c45)ccc3C)c2)c1 [Suramin hexasodium, reference compound]
- remaining activity at 20 µM [2]: 41%
- Concentration effect [3, 8]: -
- inhibition at 200 µM [3]: < 50%

SMILES: O=c1ccn([C@@H]2O[C@H](COP(=O)(O)OP(=O)(O)O)[C@@H](O)[C@H]2O)c(=O)[nH]1 [UDP, reference compound]
- Shift of Tm of UGM ([4]; 10 mM UDP): 3 °C
- T•∆S [6]: 10.5 ± 0.3 kcal/mol
- ∆G [6]: -7.1 ± 0.1 kcal/mol
- ∆H [6]: 3.3 ± 0.1 kcal/mol
- Kd [6]: 5.4 ± 0.8 µM
- Kd [1]: 10 ± 1 µM

SMILES: O=C1C[C@@H](c2ccc(O)cc2)Oc2cc(O)ccc21 [liquiritigenin]
- Inhibition of UGM by derivatives [3]: no inhibitory effect

— article PMC5589893, “Identification of Aspergillus fumigatus UDP-Galactopyranose Mutase Inhibitors” (Scientific Reports, 2017)
